From US20240091324A1, “GASTROINTESTINAL HEALTH COMPOSITION” (priority 2019, published 2024)

Assays:
[1] = system: IL-8 release from Caco-2 monolayers; assay: Release of IL-8 from polarised Caco-2 monolayers stimulated with LPS, TNF-α, IFN-β; assay type: cell-based, human
Protocol: Inflammatory model of Caco-2 polarised monolayer stimulated with inflammatory mediators LPS, TNF-α, IFN-β: Polarised Caco-2 models were generated as previously described. When cell cultures reached a baseline TER of >1000/cm^2, the monolayers were stimulated by addition of 0.6 ml containing 50 ng/ml IFN-β, 10 μg/ml LPS and 5 ng/ml TNFα to the basolateral compartment. Immediately after the addition of the stimulation cocktail 0.25 ml of GaRP±0-80 μg/ml bromelain was applied to the apical compartment. After the 24 h incubation culture supernatants from the apical side were collected for quantitation of IL-8.
The human colorectal adenocarcinoma cell-line C2BBe1 was grown and maintained in Dulbecco's modified Eagle's medium (DMEM) supplemented with 10% v/v fetal bovine serum (FBS), 4 mM L-glutamine, 100 U/ml penicillin and […] streptomycin. All experiments were conducted on C2BBe1 cells within 12 passages after thawing.
In an experiment to evaluate the anti-inflammatory effect of bromelain or various GaRP formulations, 0.25 ml of test samples was applied to the apical side for 24 h, at the same time 0.6 ml of a cocktail containing 50 ng/ml IFN+10 ug/ml LPS+5 ng/ml TNF was added to the basolateral side in this model. After the 24 h incubation culture supernatants from the apical side were collected and IL-8 quantitated by ELISA.

MUC12 = assay: qPCR of MUC gene expression in Caco-2:HT-29-MTX 75:25 coculture; assay type: cell-based, human; conditions: 24 h
Protocol: (§1) Caco-2:HT-29-MTX 75:25 coculture: This co-culture model was used to simulate the human colonic epithelium (Hilgendorh C, 2000). The Caco-2 cells (passage 8) and the HT29-MTX cells (passage 9) were combined at a 75:25 ratio in DMEM with 10% FBS. The combined cells (6.4×10^4 cells/ml) were seeded into 25 cm^2 in a total of 5 ml per flask. The coculture was incubated at 37° C. in a 5% CO2 atmosphere with medium refreshed every 48 h. At 15 days post seeding, the coculture monolayer was washed three times in DMEM and replaced with 5 ml of pre-warmed test solution, and then incubated for 24 h.
(§2) Before RNA extraction, cells were collected by centrifugation at 5,000 g for 5 min, 4° C. the cell pellet was washed three times in ice-cold PBS followed by resuspension in 500 μl of ice-cold PBS. The total RNA of 2×10^6 cells per sample was extracted using a PureLink RNA mini kit with 1.5 μg of RNA (with A260/A280 ratio between 2.00 and 2.20) reverse-transcribed into cDNA using a High Capacity cDNA RT kit. The expression of the genes of interest was quantified using the PowerUp SYBR green Master mix. In brief, triplicate qPCR reactions was set up using 20 ng cDNA and 500 nM primers in a MicroAmp optical 384-well reaction plates using a Biomek-4000 automated liquid handler (Beckman Coulter, Brea, CA, USA). Amplification was run in a ViiA7 Real-Time PCR system (Thermo Fisher Scientific) at the following conditions: 95° C. for 20 seconds followed by 40 cycles of 95° C. for 1 second and 60° C. for 20 seconds; and a melt curve stage: 95° C., 15 s; 60° C., 60 s. The results of qPCR were analysed with the 2-ΔΔCT method as previously described using the QuantStudio Software V1.3 (Applied Biosystems). Relative gene expression values were normalized by using GAPDH and 18S as the multiple endogenous reference genes.
(§3) A 75:25 caco-2/HT-29 co-culture was established as previously described herein and the effect of a 24 h exposure to bromelain, threonine, sodium butyrate, vitamin D3 and the two different GaRP formulations on the expression of the following MUC genes was investigated using qPCR. At the end of the 24 h treatment, the supernatant in the 25 cm^2 flasks was collected and the coculture monolayer was trypsinised as previously described herein.
as §1, with “This” for “Caco-2:HT-29-MTX 75:25 coculture: This”, “epithelium.” for “epithelium (Hilgendorh C, 2000).”
(§4) The test solutions of cholecalciferol (VD3) and L-Threonine (L-Thr) (Sigma-Aldrich) in culture medium were prepared one day before the treatment. At 15 days post seeding, the coculture monolayer was washed three times at hourly interval with culture medium, which was then replaced with 5 ml of pre-warmed test solution, and then incubated for 24 h.
(§5) At the end of the 24 h treatment, the supernatant in the 25 cm^2 flasks was collected and the coculture monolayer was trypsinised as previously described. Cells were collected by centrifugation at 5,000 g for 5 min, 4° C. After washed three times with ice-cold PBS, the cells were resuspended in 500 μl of ice-cold PBS. The total RNA of 2×10^6 cells per sample was extracted using the PureLink RNA mini kit (Invitrogen). For real-time PCR analysis, 1.5 μg of RNA (with A260/A280 ratio between 2.00 and 2.20) was reverse transcribed into cDNA using the High Capacity cDNA RT kit (Applied Biosystems, Foster City, CA, USA).
(§6) The expression of the human MUC2 and MUC7 genes in the Caco-2:HT-29-MTX 75:25 coculture was quantified using the PowerUp SYBR green Master mix (Applied Biosystems). […]

MUC13 = assay: as above; assay type: cell-based, human; conditions: 24 h
Protocol: as §1, §2, §3
as §1, with “This” for “Caco-2:HT-29-MTX 75:25 coculture: This”, “epithelium.” for “epithelium (Hilgendorh C, 2000).”
as §4, §5, §6

MUC15 = assay: as above; assay type: cell-based, human; conditions: 24 h
Protocol: as §1, §2, §3
as §1, with “This” for “Caco-2:HT-29-MTX 75:25 coculture: This”, “epithelium.” for “epithelium (Hilgendorh C, 2000).”
as §4, §5, §6

MUC16 = assay: as above; assay type: cell-based, human; conditions: 24 h
Protocol: as §1, §2, §3
as §1, with “This” for “Caco-2:HT-29-MTX 75:25 coculture: This”, “epithelium.” for “epithelium (Hilgendorh C, 2000).”
as §4, §5, §6

MUC17 = assay: as above; assay type: cell-based, human; conditions: 24 h
Protocol: as §1, §2, §3
as §1, with “This” for “Caco-2:HT-29-MTX 75:25 coculture: This”, “epithelium.” for “epithelium (Hilgendorh C, 2000).”
as §4, §5, §6

MUC19 = assay: as above; assay type: cell-based, human; conditions: 24 h
Protocol: as §1, §2, §3
as §1, with “This” for “Caco-2:HT-29-MTX 75:25 coculture: This”, “epithelium.” for “epithelium (Hilgendorh C, 2000).”
as §4, §5, §6

MUC1 = assay: as above; assay type: cell-based, human; conditions: 24 h
Protocol: as §1, §2, §3
as §1, with “This” for “Caco-2:HT-29-MTX 75:25 coculture: This”, “epithelium.” for “epithelium (Hilgendorh C, 2000).”
as §4, §5, §6

MUC20 = assay: as above; assay type: cell-based, human; conditions: 24 h
Protocol: as §1, §2, §3
as §1, with “This” for “Caco-2:HT-29-MTX 75:25 coculture: This”, “epithelium.” for “epithelium (Hilgendorh C, 2000).”
as §4, §5, §6

MUC2 = assay: as above; assay type: cell-based, human; conditions: 24 h
Protocol: as §1, §2, §3
as §1, with “This” for “Caco-2:HT-29-MTX 75:25 coculture: This”, “epithelium.” for “epithelium (Hilgendorh C, 2000).”
as §4, §5, §6

MUC3 = assay: as above; assay type: cell-based, human; conditions: 24 h
Protocol: as §1, §2, §3
as §1, with “This” for “Caco-2:HT-29-MTX 75:25 coculture: This”, “epithelium.” for “epithelium (Hilgendorh C, 2000).”
as §4, §5, §6

MUC4 = assay: as above; assay type: cell-based, human; conditions: 24 h
Protocol: as §1, §2, §3
as §1, with “This” for “Caco-2:HT-29-MTX 75:25 coculture: This”, “epithelium.” for “epithelium (Hilgendorh C, 2000).”
as §4, §5, §6

MUC5AC = assay: as above; assay type: cell-based, human; conditions: 24 h
Protocol: as §1, §2, §3
as §1, with “This” for “Caco-2:HT-29-MTX 75:25 coculture: This”, “epithelium.” for “epithelium (Hilgendorh C, 2000).”
as §4, §5, §6

MUC5B = assay: as above; assay type: cell-based, human; conditions: 24 h
Protocol: as §1, §2, §3
as §1, with “This” for “Caco-2:HT-29-MTX 75:25 coculture: This”, “epithelium.” for “epithelium (Hilgendorh C, 2000).”
as §4, §5, §6

MUC6 = assay: as above; assay type: cell-based, human; conditions: 24 h
Protocol: as §1, §2, §3
as §1, with “This” for “Caco-2:HT-29-MTX 75:25 coculture: This”, “epithelium.” for “epithelium (Hilgendorh C, 2000).”
as §4, §5, §6

MUC7 = assay: as above; assay type: cell-based, human; conditions: 24 h
Protocol: as §1, §2, §3
as §1, with “This” for “Caco-2:HT-29-MTX 75:25 coculture: This”, “epithelium.” for “epithelium (Hilgendorh C, 2000).”
as §4, §5, §6

MUC8 = assay: as above; assay type: cell-based, human; conditions: 24 h
Protocol: as §1, §2, §3
as §1, with “This” for “Caco-2:HT-29-MTX 75:25 coculture: This”, “epithelium.” for “epithelium (Hilgendorh C, 2000).”
as §4, §5, §6

[2] = system: Bacteria (AIEC obtained from IBD and IBS patients); assay: Observed therapeutic effective dose determined in the in vitro experiments (Table 4); assay type: cell-based, E. coli; conditions: Not relevant = no anti-attachment or anti-invasive effect on the AIEC
Protocol: (§7) The observed therapeutic effective dose was determined in the in vitro experiments described herein.
(§8) Table 4 summarises the observed therapeutic effective dose for each GaRP formulation component.

Enterocyte = assay: as above; assay type: cell-based, human
Protocol: as §7, §8

Macrophage = assay: as above; assay type: cell-based, human
Protocol: as §7, §8

SMILES: N[C@@H](Cc1c[nH]c2ccccc12)C(=O)O [L-tryptophan]
- % inhibition of the release of IL-8 Median ± SEM ([1]; formulation or component plus 80 ug/ml bromelain, 24 h): 76 ± 2%
- % increase in anti-inflammatory activity compared to equivalent formulation without bromelain (difference of means) ([1]; plus 80 ug/ml bromelain): 62%
- % inhibition of the release of IL-8 Median ± SEM ([1]; without bromelain, test sample apical 24 h, IFN+LPS+TNF cocktail basolateral): 14 ± 7%

SMILES: C=C1CC[C@H](O)C/C1=C/C=C1\CCC[C@]2(C)[C@@H]([C@H](C)CCCC(C)C)CC[C@@H]12 [Vitamin D3, Cholecalciferol]
- Effect on MUC gene expression, MUC12 (MUC12; 0.048 μg/ml vitamin D3): No effect
- Effect on MUC gene expression, MUC12 (MUC12; 0.48 μg/ml vitamin D3): No effect
- Effect on MUC gene expression, MUC13: Decreased by (MUC13; 0.048 μg/ml vitamin D3): by 37%
- Effect on MUC gene expression, MUC13: Decreased by (MUC13; 0.48 μg/ml vitamin D3): by 56%
- Effect on MUC gene expression, MUC15 (MUC15; 0.048 μg/ml vitamin D3): No effect
- Effect on MUC gene expression, MUC15 (MUC15; 0.48 μg/ml vitamin D3): No effect
- Effect on MUC gene expression, MUC16 (MUC16; 0.048 μg/ml vitamin D3): No effect
- Effect on MUC gene expression, MUC16 (MUC16; 0.48 μg/ml vitamin D3): No effect
- Effect on MUC gene expression, MUC17: Decreased by (MUC17; 0.048 μg/ml vitamin D3): by 31%
- Effect on MUC gene expression, MUC17: Decreased by (MUC17; 0.48 μg/ml vitamin D3): by 40%
- Effect on MUC gene expression, MUC19 (MUC19; 0.048 μg/ml vitamin D3): No effect
- Effect on MUC gene expression, MUC19 (MUC19; 0.48 μg/ml vitamin D3): No effect
- Effect on MUC gene expression, MUC1: Decreased by (MUC1; 0.048 μg/ml vitamin D3): by 37%
- Effect on MUC gene expression, MUC1: Decreased by (MUC1; 0.48 μg/ml vitamin D3): by 58%
- Effect on MUC gene expression, MUC20: Decreased by (MUC20; 0.048 μg/ml vitamin D3): by 18%
- Effect on MUC gene expression, MUC20: Decreased by (MUC20; 0.48 μg/ml vitamin D3): by 27%
- Effect on MUC gene expression, MUC2 (MUC2; 0.048 μg/ml vitamin D3): No effect
- Effect on MUC gene expression, MUC2 (MUC2; 0.48 μg/ml vitamin D3): No effect
- effect on the expression of MUC2, individually (MUC2; titration, FIGS. 9A & 9B): did not exert a major effect
- Effect on MUC gene expression, MUC3: Decreased by (MUC3; 0.048 μg/ml vitamin D3): by 43%
- Effect on MUC gene expression, MUC3 (MUC3; 0.48 μg/ml vitamin D3): No effect
- Effect on MUC gene expression, MUC4 (MUC4; 0.048 μg/ml vitamin D3): No effect
- Effect on MUC gene expression, MUC4 (MUC4; 0.48 μg/ml vitamin D3): No effect
- Effect on MUC gene expression, MUC5AC: Decreased by (MUC5AC; 0.048 μg/ml vitamin D3): by 42%
- Effect on MUC gene expression, MUC5AC: Decreased by (MUC5AC; 0.48 μg/ml vitamin D3): by 42%
- Effect on MUC gene expression, MUC5B: Decreased by (MUC5B; 0.048 μg/ml vitamin D3): by 56%
- Effect on MUC gene expression, MUC5B: Decreased by (MUC5B; 0.48 μg/ml vitamin D3): by 63%
- Effect on MUC gene expression, MUC6 (MUC6; 0.048 μg/ml vitamin D3): No effect
- Effect on MUC gene expression, MUC6 (MUC6; 0.48 μg/ml vitamin D3): No effect
- Effect on MUC gene expression, MUC7 (MUC7; 0.048 μg/ml vitamin D3): No effect
- Effect on MUC gene expression, MUC7 (MUC7; 0.48 μg/ml vitamin D3): No effect
- effect on the expression of MUC7, individually (MUC7; titration, FIGS. 9A & 9B): did not exert a major effect
- Effect on MUC gene expression, MUC8: Decreased by (MUC8; 0.048 μg/ml vitamin D3): by 30%
- Effect on MUC gene expression, MUC8: Decreased by (MUC8; 0.48 μg/ml vitamin D3): by 50%
- observed therapeutic effective dose, Target cell Bacteria (fg/cell) [2]: Not relevant
- observed therapeutic effective dose, Target cell Enterocyte (pg/cell) (Enterocyte): 0.018 pg/cell
- observed therapeutic effective dose, Target cell Macrophage (pg/cell) (Macrophage): 0.36 pg/cell
